Structures are written as SMILES.

The values below come from PMC7024175, “In Depth Analysis of Kinase Cross Screening Data to Identify CAMKK2 Inhibitory Scaffolds” (Molecules, 2020).

The assay addresses T1, CAMKK2 (Homo sapiens, UniProt Q96RR4).
T1 construct: made in house
Description: CAMKK2 enzyme assay (radiometric, CaMKKtide). Type of assay: biochemical. The conditions noted are these: for remaining activity at 0.01 µM / remaining activity at 0.1 µM / remaining activity at 1 µM: read-out: PoC (activity remaining); for IC50: 8-point full dose response, read-out: IC50.
Description: CAMKK2 activity was determined by measuring the transfer of radiolabeled phosphate from [γ-^32P]-ATP to a synthetic peptide substrate (CaMKKtide) as previously described [49]. Briefly, purified recombinant CAMKK2 (100 pM) was incubated in assay buffer (50 mM HEPES [pH 7.4], 1 mM DTT, 0.02% [v/v] Brij-35) containing 200 μM CaMKKtide (Genscript), 100 μM CaCl2, 1 μM CaM (Sigma-Aldrich, Castle Hill, NSW, Australia) 200 μM [γ-^32P]-ATP (Perkin Elmer, Boston, MA, USA), 5 mM MgCl2 (Sigma-Aldrich, Castle Hill, NSW, Australia) and various concentrations of inhibitors (0–1 μM) in a standard 30 μl assay for 10 min at 30 °C. Reactions were terminated by spotting 15 μl onto P81 phosphocellulose paper (GE Lifesciences, Paramatta, NSW, Australia) and washing extensively in 1% phosphoric acid (Sigma-Aldrich, Castle Hill, NSW, Australia). Radioactivity was quantified by liquid scintillation counting.

T1 sequence (Q96RR4 whole entry): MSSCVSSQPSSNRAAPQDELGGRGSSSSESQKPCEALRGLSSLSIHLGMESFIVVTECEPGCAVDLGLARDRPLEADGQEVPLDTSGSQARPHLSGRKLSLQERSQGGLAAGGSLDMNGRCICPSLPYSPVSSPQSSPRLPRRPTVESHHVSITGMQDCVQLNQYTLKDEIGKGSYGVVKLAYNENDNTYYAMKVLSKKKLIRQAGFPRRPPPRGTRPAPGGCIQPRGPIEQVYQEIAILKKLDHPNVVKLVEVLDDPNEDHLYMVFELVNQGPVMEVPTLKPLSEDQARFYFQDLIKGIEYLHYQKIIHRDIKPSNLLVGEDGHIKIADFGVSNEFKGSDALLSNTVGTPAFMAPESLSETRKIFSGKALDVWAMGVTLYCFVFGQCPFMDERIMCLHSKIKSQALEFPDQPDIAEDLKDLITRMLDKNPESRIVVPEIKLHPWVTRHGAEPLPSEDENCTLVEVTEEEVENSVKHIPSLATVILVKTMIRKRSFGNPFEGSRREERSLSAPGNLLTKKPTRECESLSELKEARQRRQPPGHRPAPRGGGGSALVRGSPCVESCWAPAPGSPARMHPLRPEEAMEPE

As usually defined, the remaining activity is the signal under treatment as a percentage of the control signal. As for `O=C(NCCCNc1nc(Nc2cccc(NC(=O)N3CCCC3)c2)ncc1I)c1cccs1` [BX795], the remaining activity at 0.01 µM (0.01 µM inhibitor) was 97%. For the same compound, the remaining activity at 0.1 µM (0.1 µM inhibitor) came out at 80%. The remaining activity at 1 µM (1.0 µM inhibitor) was found to be 33%.

As to `c1cc(-c2cnn3cc(-c4ccc(OCCN5CCCCC5)cc4)cnc23)ccn1` [Dorsomorphin], the remaining activity at 0.01 µM (0.01 µM inhibitor) came out at 100%. Besides, for the setting “0.1 µM inhibitor”, the remaining activity at 0.1 µM came to 96%. Besides, the remaining activity at 1 µM (1.0 µM inhibitor) was 58%.

Consider `N#Cc1c(Oc2ccc(F)c(NC(=O)Cc3cccc(C(F)(F)F)c3)c2)ccc2nc(NC(=O)C3CC3)sc12` [TAK632], for which the “PoC (activity remaining)” value amounted to 92% (0.01 µM inhibitor), 87% (0.1 µM inhibitor) and 82% (1.0 µM inhibitor).

For `O=C1NC(=O)/C(=C/c2ccc3nccc(-c4ccncc4)c3c2)S1` [GSK1059615], for the setting “0.01 µM inhibitor”, the remaining activity at 0.01 µM was determined as 92%. For the same compound, the remaining activity at 0.1 µM (0.1 µM inhibitor) stood at 81%. Further, the remaining activity at 1 µM (1.0 µM inhibitor) was 34%.

With `C1=C/COCc2cc(ccc2OCCN2CCCC2)Nc2nccc(n2)-c2cccc(c2)COC/1` [Pacritinib], the remaining activity at 0.01 µM (0.01 µM inhibitor) was 96%. For the same compound, the remaining activity at 0.1 µM (0.1 µM inhibitor) was 78%. Also, the remaining activity at 1 µM (1.0 µM inhibitor) came to 31%.

Turning to `COc1cc(N2CCOCC2)ccc1Nc1ncc(F)c(Nc2ccccc2NS(C)(=O)=O)n1` [CZC 25146], the “PoC (activity remaining)” value (0.01 µM inhibitor) is reported as 96%, the “PoC (activity remaining)” value (0.1 µM inhibitor) was found to be 101% and the “PoC (activity remaining)” value (1.0 µM inhibitor) turned out to be 93%.

For `C=CCn1c(=O)c2cnc(Nc3ccc(N4CCN(C)CC4)cc3)nc2n1-c1cccc(C(C)(C)O)n1` [MK1775], the remaining activity at 0.01 µM (0.01 µM inhibitor) is 101%. Besides, where the note is “0.1 µM inhibitor”, the remaining activity at 0.1 µM came out at 99%. The remaining activity at 1 µM (1.0 µM inhibitor) was 99%.

The term IC50 denotes the concentration at which inhibition is half-maximal. On to `CC(=O)NCC(=O)N1[C@@H]2CC[C@H]1c1ccc(Nc3ncc(C(F)(F)F)c(NC4CCC4)n3)cc12` [PF03814735], for which the IC50 was determined as 227 nM. The “PoC (activity remaining)” value (0.01 µM inhibitor) amounted to 92%. Besides, the “PoC (activity remaining)” value (0.1 µM inhibitor) came to 70%. Moreover, the “PoC (activity remaining)” value (1.0 µM inhibitor) is 20%.

In the case of `COc1cc(N2CCC(N(C)C)CC2)ccc1Nc1ncc(Cl)c(Nc2ccccc2P(C)(C)=O)n1` [ALK-IN-1], the concentration for half-maximal inhibition (IC50) stood at 28 nM. Also, the remaining activity at 0.01 µM (0.01 µM inhibitor) stood at 62%. Where the note is “0.1 µM inhibitor”, the remaining activity at 0.1 µM was found to be 34%. Moreover, under “1.0 µM inhibitor”, the remaining activity at 1 µM is 3%.

In the case of `CN1CC[C@H](c2c(O)cc(O)c3c(=O)cc(-c4ccccc4Cl)oc23)[C@H](O)C1` [Alvocidib], for the setting “0.01 µM inhibitor”, the remaining activity at 0.01 µM came out at 102%. Further, the remaining activity at 0.1 µM (0.1 µM inhibitor) turned out to be 62%. The remaining activity at 1 µM (1.0 µM inhibitor) worked out at 29%.

Turning to `CC[C@@H]1C(=O)N(C)c2cnc(Nc3ccc(C(=O)N[C@H]4CC[C@H](N5CCN(CC6CC6)CC5)CC4)cc3OC)nc2N1C(C)C` [BI6727], the remaining activity at 0.01 µM (0.01 µM inhibitor) worked out at 104%. Further, for the setting “0.1 µM inhibitor”, the remaining activity at 0.1 µM stood at 94%. Further, the remaining activity at 1 µM (1.0 µM inhibitor) is 75%.

For the compound `CCS(=O)(=O)Nc1ccc2c(c1)/C(=C(/Nc1ccc(CN3CCCCC3)cc1)c1ccccc1)C(=O)N2` [Hesperadin], the remaining activity at 0.01 µM (0.01 µM inhibitor) is 99%. For the same compound, for the setting “0.1 µM inhibitor”, the remaining activity at 0.1 µM was 95%. Moreover, the remaining activity at 1 µM (1.0 µM inhibitor) turned out to be 84%.

Consider `COC(=O)[C@@]1(O)C[C@H]2O[C@]1(C)n1c3ccccc3c3c4c(c5c6ccccc6n2c5c31)C(=O)NC4` [K252a], for which the “PoC (activity remaining)” value is, setting by setting: (0.01 µM inhibitor) 99%; (1.0 µM inhibitor) 31%.

For `O=C1NC(=NCc2cccs2)S/C1=C\c1ccc2ncccc2c1` [Ro 3306], the “PoC (activity remaining)” value is listed as 94% (0.01 µM inhibitor), 94% (0.1 µM inhibitor) and 88% (1.0 µM inhibitor).

With `Cn1cc(C2=C(c3cn(CCCSC(=N)N)c4ccccc34)C(=O)NC2=O)c2ccccc21` [Ro 31-8220], the “PoC (activity remaining)” value reads like this: (0.01 µM inhibitor) 100%; (0.1 µM inhibitor) 100%; (1.0 µM inhibitor) 85%.

`CC(=O)c1cnc2ccc(-c3cc(Cl)c(O)c(Cl)c3)nc2c1N[C@H]1CC[C@H](CN(C)C)CC1` [OTSSP167]: the IC50 came to 86 nM. In addition, the remaining activity at 0.01 µM (0.01 µM inhibitor) came out at 84%. The remaining activity at 0.1 µM (0.1 µM inhibitor) worked out at 49%. In addition, for the setting “1.0 µM inhibitor”, the remaining activity at 1 µM stood at 0%.
